This note sets out measurements from US9963467B2, “Boronic acid derivatives and therapeutic uses thereof” (Rempex Pharmaceuticals, Inc., priority 2014, dated 2018).

Format in all cases: in vitro ADME
The nature of data set [1]: Serum stability of prodrugs, human serum. Particulars: theoretical initial conc. 20 ug/mL; for Measured Initial Conc. in Serum: 37 degrees; for Conc. at t = 1 hr: prodrug.
A short description of data set [2]: Serum stability of prodrugs, rat serum. The conditions noted are these: theoretical initial conc. 20 ug/mL; for Measured Initial Conc. in Serum: 37 degrees; for Conc. at t = 1 hr / Conc. at t = 3 hr: prodrug. The method, then: (§1) Prodrug strategy is one of the ways to achieve or increase oral bioavailability for therapeutic drugs. […] After a prodrug molecule is absorbed into systemic circulation, it should be hydrolyzed in the blood in order to release the active form. Hydrolysis of several prodrugs by rat and human serum were evaluated.
(§2) For all stability experiments the test compounds were treated with rat or human serum in Eppendorf tubes. Typically, 992 μl of serum was prewarmed at 37 degrees for 2 minutes and then 8 μl of a compound (at 5 mg/ml, 125×) was added to it to get a final concentration of […] and immediately mixed. Alternatively, serum stability might be tested at 1 mg/ml. […] After vortexing for 30 seconds, the tube was centrifuged in a microcentrifuge for 10 minutes at 15K rpm. Next, 100 μl of the supernatant was combined with 600 μl of water and injected on LC-MS using 0.1% formic acid in water for mobile phase A and 0.1% formic acid in methanol for mobile phase B on an ACE 5 C18 2.1×100 mm column with a 10 μL injection. The flow rate and gradient were adjusted as needed to give the desired resolution and run time. The pH of the mobile phase was adjusted if needed to improve the chromatography.
(§3) The time course of both the disappearance of a prodrug and the appearance of the active form of that prodrug is presented in Table 6 and Table 7. The active metabolites for all of the listed prodrugs are corresponding parent drugs

Data set [3] is described as follows: Serum stability of prodrugs, human serum. The conditions noted are these: human serum; prodrug; theoretical initial conc. 20 ug/mL. The method, then: as §1, §2, §3

Molecules are shown by their SMILES.

With `CCC(=O)OCOC(=O)c1c(F)ccc2c1OB(O)[C@@H](NC(=O)CSC)C2` [Compound 16, (R)-propionyloxymethyl 7-fluoro-2-hydroxy-3-(2-(methylthio)acetamido)-3,4-dihydro-2H-benzo[e][1,2]oxaborinine-8-carboxylate], in data set [1], the “Measured Initial Conc. in Serum” value stood at 20.7 µg/mL and the “Conc. at t = 1 hr” value worked out at 2290 ng/mL. In data set [2], the “Measured Initial Conc. in Serum” value was 20.2 µg/mL, the “Conc. at t = 1 hr” value turned out to be 400 ng/mL and the “Conc. at t = 3 hr” value is 0 ng/mL. In data set [3], the “Conc. at t = 3 hr” value came to 270 ng/mL.

For `CSCC(=O)N[C@H]1Cc2ccc(F)c(C(=O)OCOC(=O)C(C)C)c2OB1O` [Compound 17, (R)-isobutyryloxymethyl 7-fluoro-2-hydroxy-3-(2-(methylthio)acetamido)-3,4-dihydro-2H-benzo[e][1,2]oxaborinine-8-carboxylate], the “Measured Initial Conc. in Serum” value in data set [1] worked out at 9.74 µg/mL; in data set [2], 9.22 µg/mL. The entries for the “Conc. at t = 1 hr” value in data set [1] and in data set [2] were 1180 ng/mL and 1350 ng/mL, respectively. Also, in data set [3], the “Conc. at t = 3 hr” value was 160 ng/mL.

For the compound `CSCC(=O)N[C@H]1Cc2ccc(F)c(C(=O)OCOC(=O)C(C)(C)C)c2OB1O` [Compound 18, (R)-pivaloyloxymethyl 7-fluoro-2-hydroxy-3-(2-(methylthio)acetamido)-3,4-dihydro-2H-benzo[e][1,2]oxaborinine-8-carboxylate], in data set [1], the “Measured Initial Conc. in Serum” value came out at 16.3 µg/mL and the “Conc. at t = 1 hr” value came to 11600 ng/mL. Besides, in data set [2], the “Measured Initial Conc. in Serum” value turned out to be 14.6 µg/mL, the “Conc. at t = 1 hr” value stood at 9390 ng/mL and the “Conc. at t = 3 hr” value was 3290 ng/mL. Further, in data set [3], the “Conc. at t = 3 hr” value was found to be 6270 ng/mL.

Regarding `CCOC(=O)OCOC(=O)c1c(F)ccc2c1OB(O)[C@@H](NC(=O)CSC)C2` [Compound 19, (R)-(ethoxycarbonyloxy)methyl 7-fluoro-2-hydroxy-3-(2-(methylthio)acetamido)-3,4-dihydro-2H-benzo[e][1,2]oxaborinine-8-carboxylate], the “Measured Initial Conc. in Serum” value in data set [1] stood at 20.3 µg/mL; in data set [2] it was 17.4 µg/mL. The “Conc. at t = 1 hr” value in data set [1] turned out to be 6110 ng/mL; in data set [2], 0 ng/mL. Further, the “Conc. at t = 3 hr” value in data set [2] was determined as 0 ng/mL; in data set [3], 1170 ng/mL.

For the compound `COc1ccc2c(c1C(=O)OCOC(=O)OC(C)C)OB(O)[C@@H](NC(=O)CSC)C2` [Compound 40, isopropoxycarbonyloxymethyl(3R)-2-hydroxy-7-methoxy-3-[(2-methylsulfanylacetyl)amino]-3,4-dihydro-1,2-benzoxaborinine-8-carboxylate], in data set [1], the “Measured Initial Conc. in Serum” value is 24.8 µg/mL and the “Conc. at t = 1 hr” value was 23600 ng/mL. In data set [2], the “Measured Initial Conc. in Serum” value worked out at 25.9 µg/mL, the “Conc. at t = 1 hr” value was found to be 2710 ng/mL and the “Conc. at t = 3 hr” value came to 740 ng/mL. Also, the “Conc. at t = 3 hr” value in data set [3] came to 19000 ng/mL.

For the compound `CCOC(=O)OCOC(=O)c1c(OC)ccc2c1OB(O)[C@@H](NC(=O)CSC)C2` [Compound 41, ethoxycarbonyloxymethyl(3R)-2-hydroxy-7-methoxy-3-[(2-methylsulfanylacetyl)amino]-3,4-dihydro-1,2-benzoxaborinine-8-carboxylate], in data set [1], the “Measured Initial Conc. in Serum” value turned out to be 24.4 µg/mL and the “Conc. at t = 1 hr” value came to 20800 ng/mL. Further, in data set [2], the “Measured Initial Conc. in Serum” value stood at 20.6 µg/mL, the “Conc. at t = 1 hr” value was determined as 400 ng/mL and the “Conc. at t = 3 hr” value turned out to be 0 ng/mL. Also, the “Conc. at t = 3 hr” value in data set [3] was determined as 20900 ng/mL.
